Measurements from patent US20200216417A1, “INHIBITORS OF FIBROBLAST ACTIVATION PROTEIN” (Praxis Biotech LLC, priority 2019, published 2020).

How the values were obtained:
[1] = target: T1, recombinant human FAPα (rhFAPα) (Homo sapiens, UniProt Q12884); assay: FAPα enzymatic exopeptidase (dipeptidase) activity assay, Z-Gly-Pro-AMC; format: biochemical; settings: for IC50: read-out: rhFAP IC50; for inhibition at 1 µM / rhFAPα (% exo inh @ 1 μM): exopeptidase inhibition at 1 μM test compound; for inhibition at 1 µM: read-out: rhFAPα % exo inh @ 1 μM
T1 construct: purchased R&S system (so in the source)
T1 sequence (Q12884 1-760): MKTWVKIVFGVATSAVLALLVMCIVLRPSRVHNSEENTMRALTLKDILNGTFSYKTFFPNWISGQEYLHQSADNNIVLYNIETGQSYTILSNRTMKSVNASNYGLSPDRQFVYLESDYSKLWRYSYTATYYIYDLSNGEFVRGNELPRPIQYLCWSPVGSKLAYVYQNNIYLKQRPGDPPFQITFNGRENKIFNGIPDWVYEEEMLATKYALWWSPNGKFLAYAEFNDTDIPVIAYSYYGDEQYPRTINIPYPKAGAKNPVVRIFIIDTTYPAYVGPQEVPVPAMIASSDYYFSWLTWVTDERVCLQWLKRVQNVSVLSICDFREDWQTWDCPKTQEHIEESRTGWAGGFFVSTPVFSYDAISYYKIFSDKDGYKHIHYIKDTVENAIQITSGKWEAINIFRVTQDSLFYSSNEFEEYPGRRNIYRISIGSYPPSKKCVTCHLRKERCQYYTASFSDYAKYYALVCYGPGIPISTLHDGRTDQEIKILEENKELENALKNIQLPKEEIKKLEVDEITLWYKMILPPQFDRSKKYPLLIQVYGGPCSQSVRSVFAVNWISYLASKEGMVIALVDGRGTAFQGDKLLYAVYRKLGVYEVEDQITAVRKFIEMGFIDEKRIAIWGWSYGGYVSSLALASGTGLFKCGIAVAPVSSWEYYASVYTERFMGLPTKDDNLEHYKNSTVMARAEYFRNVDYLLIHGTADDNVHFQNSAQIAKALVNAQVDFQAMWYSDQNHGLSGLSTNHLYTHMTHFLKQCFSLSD

[2] = test system: human AML cell line MV4-11; assay: Cytotoxicity assay in human leukemia cell lines (Cell-Titer Glo); settings: MV4-11, 48 h, read-out: MV4-11 viability IC50, μM
[3] = target: T2, recombinant human DPP9 (rhDPP9) (Homo sapiens, UniProt Q86TI2); assay: DPP9 inhibition assay, 10 ng rhDPP9, Tris-HCl/BSA buffer; format: biochemical; settings: Table 3B
T2 construct: purchased R&S system / R&D systems (both sic) 5419-SE

[4] = target: T3, recombinant human DPPIV (rhDPPIV) (Homo sapiens, UniProt P27487); assay: DPPIV enzymatic activity assay, H-Gly-Pro-pNA; format: biochemical; settings: Table 3B
T3 construct: purchased R&S system (so in the source)

[5] = target: T4, recombinant human PREP (rhPREP) (Homo sapiens, UniProt P48147); assay: PREP enzymatic activity assay, Z-Gly-Pro-AMC; format: biochemical; settings: Table 3B
T4 sequence (P48147 1-710): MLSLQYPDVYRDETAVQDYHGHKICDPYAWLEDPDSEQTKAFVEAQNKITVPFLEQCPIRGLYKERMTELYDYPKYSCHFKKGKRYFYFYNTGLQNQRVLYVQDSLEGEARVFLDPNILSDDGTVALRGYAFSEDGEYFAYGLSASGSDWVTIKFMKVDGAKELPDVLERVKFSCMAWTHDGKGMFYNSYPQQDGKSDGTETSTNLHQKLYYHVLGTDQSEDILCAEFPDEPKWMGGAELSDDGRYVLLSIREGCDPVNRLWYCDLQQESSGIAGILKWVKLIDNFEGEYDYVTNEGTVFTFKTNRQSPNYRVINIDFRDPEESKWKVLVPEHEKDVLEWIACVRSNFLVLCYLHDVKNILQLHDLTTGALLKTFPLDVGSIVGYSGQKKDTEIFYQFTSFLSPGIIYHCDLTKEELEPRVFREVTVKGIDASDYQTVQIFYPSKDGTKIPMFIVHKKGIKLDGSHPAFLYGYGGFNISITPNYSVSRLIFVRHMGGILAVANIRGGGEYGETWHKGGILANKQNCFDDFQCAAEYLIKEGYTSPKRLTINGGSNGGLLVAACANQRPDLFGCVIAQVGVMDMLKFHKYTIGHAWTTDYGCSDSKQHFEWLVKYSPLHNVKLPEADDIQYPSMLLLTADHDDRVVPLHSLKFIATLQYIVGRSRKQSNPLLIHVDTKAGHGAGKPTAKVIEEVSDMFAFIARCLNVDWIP

DPPIV = target: T5, DPPIV (Mus musculus, UniProt P28843); assay: DPPIV enzymatic activity in mouse plasma (H-Gly-Pro-AMC); format: biochemical, C57BL/6 mouse; settings: H-Gly-Pro-AMC substrate
T5 construct: from tissue; host or cells: C57BL/6 mouse plasma (EDTA)
Method: Approximately 500 μL of whole blood from one C57BL/6 mouse was harvested into BD Microtainer® tubes (K2) EDTA (#365974, Becton Dickinson and Co.) via terminal cardiac puncture. The blood sample was immediately centrifuged at approximately 9000 g at 4° C. for 5 minutes. Plasma was separated and stored at −80° C. in aliquots of 300 μL. To assay baseline DPPIV enzymatic exopeptidase activity, 5 μL of thawed, mouse plasma was diluted (1:5) in buffer (100 mM Tris-HCl, 400 mM NaCl, 50 mM salicylic acid, 1 mM EDTA, pH 7.5) and mixed with 35 μL of the same buffer before being pre-incubated with different concentrations of 10 μL of test compounds or DMSO vehicle for 15 minutes at 37° C. in 96-well black plates (Nunc, #237108). After pre-incubation, 50 μL of 200 μM dipeptide substrate H-Gly-Pro-AMC (Bachem, # L-1225) was added to the mixture. The assay was performed for 1 hour at 37° C. 7-Amino-4-Methylcoumarin (AMC) release was detected measuring fluorescence at an excitation wavelength of 360 nm and an emission wavelength of 460 nm using a Multifunction Microplate Reader (Synergy 4, Biotek). All measurements were carried out at least in duplicate.

[6] = upon standing in pH 7.8; cyclization (Narra et al., 2007); cited from earlier work

T3 sequence (P27487 whole entry): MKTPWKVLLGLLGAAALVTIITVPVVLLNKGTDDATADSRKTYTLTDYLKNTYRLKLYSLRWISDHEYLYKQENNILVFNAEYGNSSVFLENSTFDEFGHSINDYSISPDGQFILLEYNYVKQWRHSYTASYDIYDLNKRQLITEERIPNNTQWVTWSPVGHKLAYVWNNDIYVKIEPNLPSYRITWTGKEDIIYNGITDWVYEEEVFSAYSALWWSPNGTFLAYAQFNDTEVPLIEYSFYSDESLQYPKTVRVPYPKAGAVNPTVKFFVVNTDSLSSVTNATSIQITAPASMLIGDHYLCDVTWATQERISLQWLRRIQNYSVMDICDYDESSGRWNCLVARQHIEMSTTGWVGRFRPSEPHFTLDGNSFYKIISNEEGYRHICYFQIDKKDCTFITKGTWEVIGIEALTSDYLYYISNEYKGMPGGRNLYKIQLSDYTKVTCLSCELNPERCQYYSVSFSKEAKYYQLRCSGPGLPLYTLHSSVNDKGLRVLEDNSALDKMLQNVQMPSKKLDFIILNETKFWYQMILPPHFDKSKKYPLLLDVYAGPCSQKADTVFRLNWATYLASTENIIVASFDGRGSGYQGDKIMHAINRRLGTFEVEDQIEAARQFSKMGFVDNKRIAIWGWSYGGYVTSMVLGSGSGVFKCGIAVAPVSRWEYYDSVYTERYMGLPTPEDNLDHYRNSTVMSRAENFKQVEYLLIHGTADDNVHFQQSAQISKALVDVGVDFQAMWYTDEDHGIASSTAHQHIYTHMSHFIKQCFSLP
T2 sequence (Q86TI2 whole entry): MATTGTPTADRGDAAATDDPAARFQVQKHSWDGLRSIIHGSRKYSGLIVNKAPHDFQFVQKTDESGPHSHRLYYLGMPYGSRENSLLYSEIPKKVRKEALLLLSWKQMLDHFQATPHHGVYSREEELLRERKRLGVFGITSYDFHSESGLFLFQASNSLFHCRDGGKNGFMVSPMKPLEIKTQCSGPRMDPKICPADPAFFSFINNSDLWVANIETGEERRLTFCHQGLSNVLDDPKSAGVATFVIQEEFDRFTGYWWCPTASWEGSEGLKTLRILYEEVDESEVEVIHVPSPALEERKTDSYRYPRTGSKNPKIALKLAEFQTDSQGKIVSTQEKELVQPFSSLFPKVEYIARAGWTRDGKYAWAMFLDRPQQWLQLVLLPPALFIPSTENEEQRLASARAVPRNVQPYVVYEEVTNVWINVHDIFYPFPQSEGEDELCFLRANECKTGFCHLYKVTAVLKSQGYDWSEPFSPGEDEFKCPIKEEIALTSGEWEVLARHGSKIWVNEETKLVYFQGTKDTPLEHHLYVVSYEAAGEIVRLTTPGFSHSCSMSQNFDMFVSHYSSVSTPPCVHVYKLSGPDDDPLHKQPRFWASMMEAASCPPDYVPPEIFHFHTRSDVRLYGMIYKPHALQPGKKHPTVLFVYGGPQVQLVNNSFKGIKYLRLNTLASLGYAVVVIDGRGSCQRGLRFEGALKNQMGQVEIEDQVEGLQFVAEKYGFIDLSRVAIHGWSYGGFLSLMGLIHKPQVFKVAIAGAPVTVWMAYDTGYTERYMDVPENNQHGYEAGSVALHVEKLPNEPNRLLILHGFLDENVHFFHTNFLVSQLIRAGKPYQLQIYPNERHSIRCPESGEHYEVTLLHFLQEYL
T5 sequence (P28843 37-760 limits assumed): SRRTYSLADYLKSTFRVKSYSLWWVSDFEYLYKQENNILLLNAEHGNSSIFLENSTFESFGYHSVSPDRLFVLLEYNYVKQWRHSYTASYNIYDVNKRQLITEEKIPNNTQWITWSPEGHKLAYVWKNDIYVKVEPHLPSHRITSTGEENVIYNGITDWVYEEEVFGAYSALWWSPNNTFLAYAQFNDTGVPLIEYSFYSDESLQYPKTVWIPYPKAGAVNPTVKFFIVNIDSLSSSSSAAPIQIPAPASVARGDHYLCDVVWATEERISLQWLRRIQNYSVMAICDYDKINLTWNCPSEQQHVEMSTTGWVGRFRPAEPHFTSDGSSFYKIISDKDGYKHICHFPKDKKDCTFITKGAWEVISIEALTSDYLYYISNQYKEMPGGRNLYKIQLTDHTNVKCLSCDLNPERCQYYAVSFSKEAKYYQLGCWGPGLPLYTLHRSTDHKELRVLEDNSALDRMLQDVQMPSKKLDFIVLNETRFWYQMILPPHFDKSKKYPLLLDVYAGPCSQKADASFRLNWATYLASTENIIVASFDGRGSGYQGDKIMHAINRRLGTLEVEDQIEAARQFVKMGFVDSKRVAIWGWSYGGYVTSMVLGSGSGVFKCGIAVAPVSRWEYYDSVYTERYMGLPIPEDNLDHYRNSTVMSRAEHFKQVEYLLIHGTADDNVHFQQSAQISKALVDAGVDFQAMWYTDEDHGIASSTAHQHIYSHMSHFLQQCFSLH

IC50 ([1]; Table 3B) [nM] | inhibition at 1 µM ([1]; Table 3B) [%] | IC50 [3] [nM] | IC50 [4] [nM] | IC50 [5] [nM] | IC50 (DPPIV) [nM] | Structure (SMILES) | IC50 [2] [µM] | rhFAPα (% exo inh @ 1 μM) ([1]; Table 2) | rhFAPα (% exo inh @ 1 μM) ([1]; Table 3B) | stability of protease inhibitory activity [6]
< 1000 | > 50 | < 1000 | > 10000 | > 10000 |  | COc1ccc(/C=C/c2ccc3nccc(C(=O)NCC(=O)N4CC(F)(F)C[C@H]4C#N)c3c2)cc1 [Compound 47] | 3 to 10 |  |  | 
< 1000 | > 50 | < 1000 | > 10000 | > 10000 |  | N#C[C@@H]1CC(F)(F)CN1C(=O)CNC(=O)c1ccnc2ccc(/C=C/c3ccc(O)nc3)cc12 [Compound 139] | > 10 |  |  | 
< 1000 | > 50 | < 1000 | 1000 to 10000 | > 10000 |  | Cc1cc(/C=C/c2ccc3nccc(C(=O)NCC(=O)N4CC(F)(F)C[C@H]4C#N)c3c2)ccn1 [Compound 192] | < 3 |  |  | 
< 1000 | > 50 | < 1000 | > 10000 | > 10000 |  | COc1cc(/C=C/c2ccc3nccc(C(=O)NCC(=O)N4CC(F)(F)C[C@H]4C#N)c3c2)ccn1 [Compound 193] | < 3 |  |  | 
< 1000 | > 50 | < 1000 | 1000 to 10000 | > 10000 |  | N#C[C@@H]1CC(F)(F)CN1C(=O)CNC(=O)c1ccnc2ccc(/C=C/c3ccnc(C(F)(F)F)c3)cc12 [Compound 194] | < 3 |  |  | 
 |  |  |  |  | < 10000 | N#CC1CC(F)(F)CN1C(=O)CNC(=O)c1ccnc2ccccc12 (centres unmarked) [Ref. Comp., reference compound] |  | +++ (+++ refers to >50% inhibition at 1 μM test compound) | +++ (+++ refers to >50% inhibition at 1 μM test compound) | 
 |  |  |  |  |  | CC(C)[C@H](N)C(=O)N1CCC[C@H]1B(O)O [Val-boroPro, reference compound] | < 3 |  |  | rapidly loses protease inhibitory activity
